The source of these data is patent US20250352444A1, “Antimicrobial mixtures” (Symrise AG, priority 2022, published 2025).

Where two headings read alike, the source gives them in different places.

The subject of assay [1] is Streptococcus mutans (DSM 20523, ATCC 25175). Nature of the assay: Minimum inhibitory concentration (MIC), DIN 58940-8 micro dilution method. The note with it: for MIC: Streptococcus mutans. In kind it is cell-based. How it is done:
(§1) MIC data were evaluated based on DIN 58940-8 micro dilution method. For the experiments three relevant bacteria occurring in the oral biofilm were selected: Streptococcus mutans (DSM 20523, ATCC 25175), Porphyromonas gingivalis (DSM 20709, ATCC33277), and Prevotella intermedia (DSM 20706, ATCC25611).
(§2) All test organisms were cultivated in suitable complex medium and under anaerobic and/or microaerophilic conditions. Every test substance was applied as technical triplicate on a 96-microtiter plate in a total volume of 300 μL per well. The inoculum was directly transferred from a glycerin stock solution or from a freshly prepared preculture. Therefore 15 mL reagent tubes were filled with specific complex growth medium and inoculated with skim milk stocks of single strains. The incubation was done at 37° C. up to 48 h until an OD620>0.1-1.0. Suspensions were controlled microscopically. In both cases the bacteria were transferred and diluted to fresh complex medium on a 96 well plate.
(§3) Test substances were either the pure materials or mixtures. The mixtures contain a cooling compound and an aroma component according to claims. Further these effective building blocks can be included in an aroma composition. Therefore, nature identical (synthetic) bases (base nature identical A/B) and/or natural basic formulations (base natural A/B) can be added.
(§4) The mixtures contained either Carvacrol (synthetic material) or the natural oregano oil with a typical Carvacrol content in the range of 50-80%.
(§5) Test substances were 100-fold solved in dimethyl sulfoxide (DMSO) and diluted directly on the 96 well plate. As […] farnesol and/or triclosan were applied in appropriate concentrations from 1 to 100 ppm. An untreated medium control was applied as growth control. The incubation of the test plates was done for 16-24 h at 37° C. At the end of the experiment, growth was determined photometrically by detecting OD620 values using Sunrise Photometer (TECAN, Austria). Mean values of triplicates were calculated and normalized with blank values (growth medium with or without test substances). The growths of treated wells were evaluated in relation to the growth control. Minimum inhibition concentrations (MIC) were defined as minimal concentration (in ppm) that causes a complete inhibition of bacterial growth.
(§6) Synergies were calculated using the following formula. The formula can be modified according to the number of components per mixture. MIC stands for minimum inhibitory concentration with the dimension of parts per million [ppm].
(§7) [formula] • MICmix=MIC value of mixture [ppm] • PA=Percentage of component A [%] • MIC A=MIC value of component A [ppm] • PB=Percentage of component B [%] • MIC B=MIC value of component B [ppm] A synergism is given if the resulting value is below 1.

The subject of assay [2] is Prevotella intermedia (DSM 20706, ATCC25611). The assay is described as above. It counts as cell-based. The note with it: for MIC: Prevotella intermedia. How it is done: as §1, §2, §3, §4, §5, §6, §7
In assay [3] the test system is Porphyromonas gingivalis (DSM 20709, ATCC33277). The assay is described as above. In kind it is cell-based. The note with it: for MIC: Porphyromonas gingivalis. How it is done:
as §1, §2, §3, §4, §5, §6, §7

The test system of a further assay is oral biofilm. As to the kind of experiment: Ex vivo biofilm model (Calgary Biofilm Device, FDA hydrolysis). In kind it is cell-based, human. The note with it: compared to untreated control biofilm (100%); treatment 4 times within 2 days for 2 min at 37° C. On the procedure:
The experiment was developed following the method described in WO2018/033211 and Kistler et al (Kistler et al. 2015).
Up to 50 subjects were recruited for saliva donation. Participants were between 18 and 65 years old and medically healthy. Subjects who had taken antibiotics, ate antimicrobial food such as garlic within last 24 h and/or had suffer from any systemic conditions that may affected their immune or inflammatory status, were excluded from the study. Fresh morning saliva from all donors were selected and pooled. All volunteers were asked to refrain from drinking, eating, or brushing their teeth bevor donating by expectoration into sterile universal tubes.
The Calgary Biofilm Device (CBD) was originally developed for medical usage. It is commercially available as MBEC (Minimum Biofilm Eradication Concentration) Biofilm Inoculator and it is suitable as a basis for biofilm research (Kistler et al. 2015; Ceri et al. 1999). […]
Stock solutions of all test substances were prepared in dimethylsulfoxide (DMSO). […] At the end the pegs were washed again, and microbial activity was quantified photometrically by fluorescein diacetate (FDA) hydrolysis. FDA is converted into fluorescein by protease, lipase, and esterase activities in the biofilm, thus the quantification of fluorescein represents the activity of the biofilm.

The mark [4] stands for this setting: S. mutans, component alone, read-out: MIC B (MIC value of component B).
The mark [5] stands for this setting: read-out: MIC A (MIC value of component A).

As for `CC(C)[C@@H]1CC[C@@H](C)C[C@H]1OC(=O)[C@@H](C)O` (stereo in doubt) [Menthyl lactate], the MIC (as a rule, the smallest concentration in the dilution series that meets the test's criterion for growth inhibition) was found to be 250 µg/mL in assay [1] (setting [4]); 125 µg/mL in assay [2] (P. intermedia, component alone, read-out: MIC B (MIC value of component B)); 125 µg/mL in assay [3] (P. gingivalis, component alone, read-out: MIC B (MIC value of component B)).

On to `CC(C)[C@@H]1CC[C@@H](C)C[C@H]1OCC(O)CO` (stereo partly drawn) [3-(−)-Menthoxy)propane-1,2-diol], for which the MIC in assay [1] (setting [4]) came out at 500 µg/mL.

Regarding `Cc1ccc(C(C)C)cc1O` [Carvacrol], in the assay on oral biofilm, the “relative biofilm activity after treatment (FIG. 1)” value is reported as “concentration dependent oral biofilm reduction”. For the same molecule, the MIC in assay [1] (setting [5]), in assay [2] (setting [5]) and in assay [3] (setting [5]) was 250 µg/mL each time.

As to `CC1CCC(C(C)C)C2(C1)OCC(CO)O2` [D,L-Menthone glyceryl ketal], the “MIC B (MIC value of component B)” value in assay [1] (S. mutans, component alone) turned out to be 500 ppm; in assay [2] (P. intermedia, component alone), 250 ppm; in assay [3] (P. gingivalis, component alone) it was 250 ppm.

As for `CC(O)COC(=O)O[C@@H]1C[C@H](C)CC[C@H]1C(C)C` (stereo partly shown) [Menthyl propylene glycol carbonate], the “MIC B (MIC value of component B)” value in assay [1] (S. mutans, component alone) worked out at 125 ppm.

(−)-Menthyl propylene glycol carbonate: the “MIC B (MIC value of component B)” value in assay [3] (P. gingivalis, component alone) turned out to be 125 ppm.
